What was measured:
Details in all cases: average where tested multiple times
BCAT2 [1] = target: T1, BCAT2 (Homo sapiens, UniProt O15382); assay: BCAT2 in vitro enzyme inhibition assay (resazurin/diaphorase-coupled fluorescence); format: biochemical
T1 sequence (O15382 28-392): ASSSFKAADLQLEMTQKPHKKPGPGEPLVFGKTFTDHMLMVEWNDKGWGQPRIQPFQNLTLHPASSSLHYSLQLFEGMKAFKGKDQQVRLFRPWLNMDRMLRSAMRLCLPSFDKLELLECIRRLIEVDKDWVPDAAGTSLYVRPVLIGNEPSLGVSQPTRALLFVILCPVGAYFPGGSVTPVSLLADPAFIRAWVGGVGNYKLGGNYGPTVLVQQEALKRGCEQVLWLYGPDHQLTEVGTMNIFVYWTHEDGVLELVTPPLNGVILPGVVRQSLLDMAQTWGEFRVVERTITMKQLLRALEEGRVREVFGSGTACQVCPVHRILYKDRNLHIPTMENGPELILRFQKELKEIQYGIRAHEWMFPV
Summary of the method: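 Coupled fluorescence readout: glutamate formed from L-leucine/α-ketoglutarate transamination drives GDH/NAD/diaphorase reduction of resazurin (Ex 540/Em 590). Human BCAT2 was first exposed 1 h at room temperature to compound, top final 100 μM in 3-fold, 10-point series; substrate reaction ran 1 h before SDS quench, in technical duplicate with DMSO max and enzyme-free min controls.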

hBCAT1 = target: T2, hBCAT1 (Homo sapiens, UniProt P54687); assay: BCAT1 in vitro enzyme inhibition assay (resazurin/diaphorase-coupled fluorescence); format: biochemical
T2 sequence (P54687 1-386): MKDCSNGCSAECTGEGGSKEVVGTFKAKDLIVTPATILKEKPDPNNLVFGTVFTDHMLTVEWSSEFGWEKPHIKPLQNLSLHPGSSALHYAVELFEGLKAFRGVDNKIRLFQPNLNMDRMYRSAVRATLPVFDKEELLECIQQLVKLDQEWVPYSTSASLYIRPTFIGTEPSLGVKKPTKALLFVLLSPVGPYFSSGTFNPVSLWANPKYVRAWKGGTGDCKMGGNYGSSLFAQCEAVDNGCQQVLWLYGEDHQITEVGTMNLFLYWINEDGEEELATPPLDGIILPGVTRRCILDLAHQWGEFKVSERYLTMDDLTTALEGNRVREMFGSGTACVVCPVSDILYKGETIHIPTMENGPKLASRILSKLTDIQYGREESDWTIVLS
Summary of the method: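 Human BCAT1 activity read by resazurin/diaphorase-coupled fluorescence. Compounds added from 50× DMSO stocks at 1:50, giving 10-point 3-fold titrations from 100 μM top final concentration. Run in technical duplicate; repeat tests averaged.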

BCAT2 [2] = target: T1, BCAT2; assay: BCAT2 in vitro cell inhibition using engineered A549 cells (KMV cell assay, 13C6-KMV by LC-MS/MS); format: cell-based; design: The result was an engineered A549 cell line that expressed endogenous BCAT2; endogenous in cells; host or cells: A549 cells with MUT and BCAT1 knocked out by CRISPR/CAS9

SMILES | IC50 (BCAT2 [1]) [µM] | IC50 (hBCAT1) [µM] | IC50 (BCAT2 [2]) [µM]
O=C(N[C@H]1CCC[C@@H](n2c(-c3c(O)cccc3F)nc3cnc(-n4nccn4)cc32)C1)c1ncc(Cl)s1 [Example 354, 5-chloro-N-((1S,3R)-3-(2-(2-fluoro-6-hydroxyphenyl)-6-(2H-1,2,3-triazol-2-yl)-1H-imidazo[4,5-c]pyridin-1-yl)cyclohexyl)thiazole-2-carboxamide] | ≤ 0.1 | < 0.5 | ≤ 0.1
CO[C@H]1C[C@H](NC(=O)c2ncc(Cl)s2)C[C@H](n2c(CC(C)C)nc3cnc(-c4ncc(C)o4)cc32)C1 (single isomer, unassigned) [Example 427] | ≤ 0.1 | 0.5 to 1 | 0.1 to 0.5
O=C(NC1COCC(n2c(-c3ncccc3F)nc3cnc(-n4nccn4)cc32)C1)c1ncc(C(F)F)s1 (single isomer, unassigned) [Example 138, 5-(difluoromethyl)-N-(5-(2-(3-fluoropyridin-2-yl)-6-(2H-1,2,3-triazol-2-yl)-1H-imidazo[4,5-c]pyridin-1-yl)tetrahydro-2H-pyran-3-yl)thiazole-2-carboxamide] | ≤ 0.1 | 0.5 to 1 | 0.1 to 0.5
CC(Oc1nc2cnc(-n3nccn3)cc2n1[C@@H]1CCC[C@H](NC(=O)c2ncc(C(F)F)s2)C1)C(F)(F)F (stereo partly drawn) [Example 98, N-((1S,3R)-3-(6-(2H-1,2,3-triazol-2-yl)-2-((1,1,1-trifluoropropan-2-yl)oxy)-1H-imidazo[4,5-c]pyridin-1-yl)cyclohexyl)-5-(difluoromethyl)thiazole-2-carboxamide] | 0.1 to 0.5 | > 5 | > 1
C#Cc1ccc(C(=O)N[C@H]2CCC[C@@H](n3c(CC(C)C)nc4cnc(-c5nc[nH]n5)cc43)C2)s1 [Example 341, 5-ethynyl-N-((1S,3R)-3-(2-isobutyl-6-(1H-1,2,4-triazol-3-yl)-1H-imidazo[4,5-c]pyridin-1-yl)cyclohexyl)thiophene-2-carboxamide] | ≤ 0.1 | 1 to 5 | ≤ 0.1
CC(C)Cc1nc2cnc(-c3ccn(C)n3)cc2n1[C@@H]1CCC[C@H](NC(=O)c2ncc(Cl)s2)[C@H]1O [Example 223, 5-chloro-N-((1S,2R,3R)-2-hydroxy-3-(2-isobutyl-6-(1-methyl-1H-pyrazol-3-yl)-1H-imidazo[4,5-c]pyridin-1-yl)cyclohexyl)thiazole-2-carboxamide] | ≤ 0.1 | < 0.5 | 0.1 to 0.5
CC(C)Cc1nc2cnc(-c3nc[nH]n3)cc2n1[C@@H]1CCCC[C@H](NC(=O)c2ncc(Cl)s2)C1 [Example 374, 5-chloro-N-((1S,3R)-3-(2-isobutyl-6-(1H-1,2,4-triazol-3-yl)-1H-imidazo[4,5-c]pyridin-1-yl)cycloheptyl)thiazole-2-carboxamide] | ≤ 0.1 | < 0.5 | ≤ 0.1
CC(C)C(=O)c1nc2cnc(-c3nc[nH]n3)cc2n1[C@@H]1CCC[C@H](NC(=O)c2ncc(Cl)s2)C1 [Example 187, 5-chloro-N-((1S,3R)-3-(2-isobutyryl-6-(1H-1,2,4-triazol-3-yl)-1H-imidazo[4,5-c]pyridin-1-yl)cyclohexyl)thiazole-2-carboxamide] | 0.1 to 0.5 | 1 to 5 | 0.1 to 0.5
CC(C)Cc1nc2cnc(-c3nc4ccccc4o3)cc2n1[C@@H]1CCC[C@H](NC(=O)c2ncc(Cl)s2)C1 [Example 324, N-((1S,3R)-3-(6-(benzo[d]oxazol-2-yl)-2-isobutyl-1H-imidazo[4,5-c]pyridin-1-yl)cyclohexyl)-5-chlorothiazole-2-carboxamide] | ≤ 0.1 | 1 to 5 | 0.1 to 0.5
C#Cc1cnc(C(=O)N[C@H]2CCC[C@@H](n3c(-c4ncccc4F)nc4cnc(-n5nccn5)cc43)C2)s1 [Example 23, 5-ethynyl-N-((1S,3R)-3-(2-(3-fluoropyridin-2-yl)-6-(2H-1,2,3-triazol-2-yl)-1H-imidazo[4,5-c]pyridin-1-yl)cyclohexyl)thiazole-2-carboxamide] | ≤ 0.1 | < 0.5 | ≤ 0.1
CO[C@H]1C[C@H](NC(=O)c2ccc(Cl)s2)C[C@H](n2c(CC(C)C)nc3cnc(-c4ncccn4)cc32)C1 (single isomer, unassigned) [Example 437] | ≤ 0.1 | < 0.5 | ≤ 0.1
CC(C)Cc1nc2cnc(-c3ccn(C(F)F)n3)cc2n1[C@@H]1CC(O)C[C@H](NC(=O)c2ncc(Cl)s2)C1 (stereo in doubt) [Example 213, 5-chloro-N-((1R,3S,5R)-3-(6-(1-(difluoromethyl)-1H-pyrazol-3-yl)-2-isobutyl-1H-imidazo[4,5-c]pyridin-1-yl)-5-hydroxycyclohexyl)thiazole-2-carboxamide] | ≤ 0.1 | 0.5 to 1 | 0.5 to 1

Results, then the molecule that gave them:

IC50 (BCAT2 [1]) [µM] | IC50 (hBCAT1) [µM] | IC50 (BCAT2 [2]) [µM] | SMILES
≤ 0.1 | < 0.5 | ≤ 0.1 | O=C(N[C@H]1CCC[C@@H](n2c(-c3ccccc3F)nc3cnc(-c4nc[nH]n4)cc32)[C@@H]1O)c1ccc(Cl)s1 [Example 399, 5-chloro-N-((1S,2R,3R)-3-(2-(2-fluorophenyl)-6-(1H-1,2,4-triazol-3-yl)-1H-imidazo[4,5-c]pyridin-1-yl)-2-hydroxycyclohexyl)thiophene-2-carboxamide]
≤ 0.1 | < 0.5 | ≤ 0.1 | O=C(N[C@H]1CCC[C@@H](n2c(-c3ccccn3)nc3cnc(-c4nc[nH]n4)cc32)C1)c1ncc(Cl)s1 [Example 184, 5-chloro-N-((1S,3R)-3-(2-(pyridin-2-yl)-6-(1H-1,2,4-triazol-3-yl)-1H-imidazo[4,5-c]pyridin-1-yl)cyclohexyl)thiazole-2-carboxamide]
0.1 to 0.5 | < 0.5 | 0.1 to 0.5 | O=C(N[C@@H]1C[C@@H](O)C[C@H](n2c(-c3ccccc3F)nc3cnc(-n4nccn4)cc32)C1)c1ncc(Cl)s1 (single isomer, unassigned) [Example 111]
≤ 0.1 | < 0.5 | ≤ 0.1 | O=C(N[C@H]1CCC[C@@H](n2c(-c3ccccc3F)nc3cnc(-c4ncccn4)cc32)C1)c1ncc(Cl)s1 [Example 185, 5-chloro-N-((1S,3R)-3-(2-(2-fluorophenyl)-6-(pyrimidin-2-yl)-1H-imidazo[4,5-c]pyridin-1-yl)cyclohexyl)thiazole-2-carboxamide]
≤ 0.1 | < 0.5 | ≤ 0.1 | O=C(N[C@H]1CCC[C@@H](n2c(-c3ccccc3F)nc3cnc(-n4nccn4)cc32)C1)c1ncc(Cl)s1 [Example 71, 5-chloro-N-((1S,3R)-3-(2-(2-fluorophenyl)-6-(2H-1,2,3-triazol-2-yl)-1H-imidazo[4,5-c]pyridin-1-yl)cyclohexyl)thiazole-2-carboxamide]
≤ 0.1 | < 0.5 | ≤ 0.1 | CC(=O)N1CC(NC(=O)c2ccc(Br)s2)CC(n2c(-c3ccccc3F)nc3cnc(-c4ncco4)cc32)C1 (stereo not drawn) [Example 118, N-(1-acetyl-5-(2-(2-fluorophenyl)-6-(oxazol-2-yl)-1H-imidazo[4,5-c]pyridin-1-yl)piperidin-3-yl)-5-bromothiophene-2-carboxamide]
≤ 0.1 | 0.5 to 1 | 0.1 to 0.5 | O=C(N[C@H]1CCC[C@@H](n2c(-c3ccccc3F)nc3cnc(-c4ccncc4)cc32)C1)c1ncc(Cl)s1 [Example 178, 5-chloro-N-((1S,3R)-3-(2-(2-fluorophenyl)-6-(pyridin-4-yl)-1H-imidazo[4,5-c]pyridin-1-yl)cyclohexyl)thiazole-2-carboxamide]
≤ 0.1 | < 0.5 | ≤ 0.1 | CN1C[C@H](NC(=O)c2ncc(Cl)s2)C[C@H](n2c(-c3ccccc3F)nc3cnc(-c4nc[nH]n4)cc32)C1 (single isomer, unassigned) [Example 134]

— patent publication US20260159512A1, “BCAT2 INHIBITORS” (AGIOS PHARMACEUTICALS, INC., priority 2021, published 2026)
